Reference: patent US10300109B2, “Peptidomimetic macrocycles” (AILERON Therapeutics, Inc., priority 2009, dated 2019)
Like-named read-outs stand apart in the source and are kept apart here. Where a SMILES comes first, the peptide text is derived from it. Bridges are numbered along the chain shown (N, C = ends). [ ]: non-standard residue; d: D form. S5 = C=CCCC[C@](C)(N)C(=O)O

Target: T1, Beta-Catenin (aa 134-668) (Homo sapiens, UniProt P35222)
T1 construct: Beta-Catenin (aa 134-668, 59 KD)
T1 sequence (P35222 134-668): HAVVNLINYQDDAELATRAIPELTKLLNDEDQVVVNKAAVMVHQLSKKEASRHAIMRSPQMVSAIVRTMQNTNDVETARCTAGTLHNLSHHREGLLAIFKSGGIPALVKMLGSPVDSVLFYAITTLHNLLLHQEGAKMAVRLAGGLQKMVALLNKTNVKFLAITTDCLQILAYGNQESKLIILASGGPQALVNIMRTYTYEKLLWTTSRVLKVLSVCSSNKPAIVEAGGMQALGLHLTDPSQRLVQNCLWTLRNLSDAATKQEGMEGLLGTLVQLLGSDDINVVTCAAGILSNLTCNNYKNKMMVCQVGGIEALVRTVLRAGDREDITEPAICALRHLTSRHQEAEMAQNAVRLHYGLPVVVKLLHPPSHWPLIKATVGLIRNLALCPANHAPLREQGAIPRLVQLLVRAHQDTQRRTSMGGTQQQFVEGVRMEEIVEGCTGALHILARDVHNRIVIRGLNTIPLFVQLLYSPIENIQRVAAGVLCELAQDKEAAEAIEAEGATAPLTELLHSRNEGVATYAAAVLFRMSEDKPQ
Assay: TCF/Beta-Catenin competitive fluorescence polarization assay
Type: binding
Details: competition with FAM-labelled linear probe for 6x His-tagged Beta-Catenin, room temperature, three hours
Protocol: The following experiments are performed at room temperature unless otherwise noted. First, an assay buffer is prepared composed of 25 mM Tris-Hcl pH 7.5, 200 mM Sodium Chloride, and 5 mM CHAPS. Next, 1M DTT is added to assay buffer to a final concentration of 2 mM. […] Forty μl of this protein stock is added to all but six wells of a 96 well plate (which will serve as the free peptide and Blank). Test competitor peptides are diluted from 1 mM DMSO stocks to 2× working stocks in assay buffer. Further dilutions are made in assay buffer-DMSO as to maintain a constant DMSO concentration in all wells. […] As a benchmark, a linear, non-crosslinked peptide competitor is prepared as above but with a working concentration range of 13-0.7 μM. Fifty μl of the competitor 2× stocks are added to the 40 μl of protein solution previously transferred into the assay 96 well plate. Next, a 10× stock of the fluorescent probe is prepared. The probe is identical to the linear benchmark peptide except for the n-terminal conjugation of a FAM flourophore with Beta-Alanine spacer. A 1 mM DMSO stock of the probe is serially diluted to a final concentration of 25 nM (10×) and 10 μl of this stock is added to all wells except for those that will serve as the blank. The assay plate is stored in the dark and the reaction is allowed to run at room temperature for three hours. The reaction is then read on a Biotek Synergy 2 with the following settings: 100 ms delay, 40 measurements per well, with excitation filters of […], and emission filters of […]. Data is then analyzed in Graphpad Prism.

[1] = read-out: Binding Activity: IC50

Row | Structure (SMILES) | IC50 [1] [nM] | IC50 (Binding Activity: IC50 (nM)) [nM]
1 | CC(=O)N[C@@H](CO)C(=O)N[C@@H](C)C(=O)N[C@@H](CCC(=O)O)C(=O)N[C@@H](CCCNC(=N)N)C(=O)N[C@@H](CC(=O)O)C(=O)N[C@@H](CC(C)C)C(=O)N[C@@H](C)C(=O)N[C@@H](CC(=O)O)C(=O)N[C@H](C(=O)N[C@@H](CCCCN)C(=O)N[C@@]1(C)CCCC=CCCC[C@@](C)(C(=O)N[C@@H](CCC(=O)O)C(=O)N[C@@H](CO)C(=O)N[C@@H](CCC(=O)O)C(=O)N[C@@H](CCCCN)C(=O)N[C@@H](CCCNC(=N)N)C(N)=O)NC(=O)[C@H](C(C)C)NC(=O)[C@H](CC(C)C)NC(=O)[C@H](CO)NC1=O)C(C)C [SP12, Ac-SAERDLADVK$SLV$ESEKR-NH2] (Ac-SAERDLADVK[S5]SLV[S5]ESEKR-NH2; staple 11-15) | 84900 | –
2 | CC[C@H](C)[C@H](NC(=O)[C@H](CC(C)C)NC(=O)[C@H](CCC(=O)O)NC(=O)[C@H](CC(=O)O)NC(=O)[C@H](CC(N)=O)NC(=O)[C@H](C)NC(=O)CNC(=O)[C@H](CC(C)C)NC(C)=O)C(=O)N[C@@H](CO)C(=O)N[C@@H](Cc1ccccc1)C(=O)N[C@@H](CCCCN)C(=O)N[C@@H](CC(=O)O)C(=O)N[C@@H](CCC(=O)O)C(=O)NCC(=O)N[C@@]1(C)CCCC=CCCC[C@@](C)(C(=O)N[C@@H](CO)C(=O)N[C@@H](CO)C(=O)N[C@@H](CC(N)=O)C(=O)N[C@@H](CC(N)=O)C(=O)N[C@@H](CO)C(=O)N[C@@H](CO)C(=O)N[C@@H](C)C(=O)N[C@@H](CCC(=O)O)C(=O)N[C@@H](CCCNC(=N)N)C(=O)N[C@@H](CC(=O)O)C(=O)N[C@@H](CC(C)C)C(=O)N[C@@H](C)C(=O)N[C@@H](CC(=O)O)C(=O)N[C@H](C(=O)N[C@@H](CCCCN)C(=O)N[C@@H](CO)C(=O)N[C@@H](CO)C(=O)N[C@@H](CC(C)C)C(=O)N[C@H](C(N)=O)C(C)C)C(C)C)NC(=O)[C@H](CCC(=O)O)NC(=O)[C@H](CCC(=O)O)NC(=O)[C@H](CCC(N)=O)NC1=O [SP28, Ac-LGANDELISFKDEG$QEE$SSNNSSAERDLADVKSSLV-NH2] (Ac-LGANDELISFKDEG[S5]QEE[S5]SSNNSSAERDLADVKSSLV-NH2; staple 15-19) | 158 | –
3 | CC[C@H](C)[C@H](NC(=O)[C@H](CC(C)C)NC(=O)[C@H](CCC(=O)O)NC(=O)[C@H](CC(=O)O)NC(=O)[C@H](CC(N)=O)NC(=O)[C@H](C)NC(=O)CNC(=O)[C@H](CC(C)C)NC(C)=O)C(=O)N[C@@H](CO)C(=O)N[C@@H](Cc1ccccc1)C(=O)N[C@@H](CCCCN)C(=O)N[C@@]1(C)CCCC=CCCC[C@@](C)(C(=O)N[C@@H](CCC(=O)O)C(=O)N[C@@H](CCC(=O)O)C(=O)N[C@@H](CCCCN)C(=O)N[C@@H](CO)C(=O)N[C@@H](CO)C(=O)N[C@@H](CC(N)=O)C(=O)N[C@@H](CC(N)=O)C(=O)N[C@@H](CO)C(=O)N[C@@H](CO)C(=O)N[C@@H](C)C(=O)N[C@@H](CCC(=O)O)C(=O)N[C@@H](CCCNC(=N)N)C(=O)N[C@@H](CC(=O)O)C(=O)N[C@@H](CC(C)C)C(=O)N[C@@H](C)C(=O)N[C@@H](CC(=O)O)C(=O)N[C@H](C(=O)N[C@@H](CCCCN)C(=O)N[C@@H](CO)C(=O)N[C@@H](CO)C(=O)N[C@@H](CC(C)C)C(=O)N[C@H](C(N)=O)C(C)C)C(C)C)NC(=O)[C@H](CCC(=O)O)NC(=O)CNC(=O)[C@H](CCC(=O)O)NC1=O [SP27] (Ac-LGANDELISFK[S5]EGE[S5]EEKSSNNSSAERDLADVKSSLV-NH2; staple 12-16) | – | 158
